Tests used:
Cytochrome P450 3A4 = Cytochrome P450 3A4 (Homo sapiens, UniProt P08684); experiment: Inhibition of CYP3A4 (unknown origin); type: ADME
[1] = Ratio of drug concentration in brain to plasma of C57BL/6 mouse administered intraperitoneally and measured for 0.25 to 24 hrs; type: ADME; conditions: time 0.25-24 hrs, route ip, read-out: BPR
Cytochrome P450 2C9 = Cytochrome P450 2C9 (Homo sapiens, UniProt P11712); experiment: Inhibition of CYP2C9 (unknown origin); type: ADME
Cytochrome P450 1A2 = biological target: T1, Cytochrome P450 1A2 (Homo sapiens, UniProt P05177); experiment: Inhibition of CYP1A2 (unknown origin); type: ADME
T1 sequence (P05177 whole entry): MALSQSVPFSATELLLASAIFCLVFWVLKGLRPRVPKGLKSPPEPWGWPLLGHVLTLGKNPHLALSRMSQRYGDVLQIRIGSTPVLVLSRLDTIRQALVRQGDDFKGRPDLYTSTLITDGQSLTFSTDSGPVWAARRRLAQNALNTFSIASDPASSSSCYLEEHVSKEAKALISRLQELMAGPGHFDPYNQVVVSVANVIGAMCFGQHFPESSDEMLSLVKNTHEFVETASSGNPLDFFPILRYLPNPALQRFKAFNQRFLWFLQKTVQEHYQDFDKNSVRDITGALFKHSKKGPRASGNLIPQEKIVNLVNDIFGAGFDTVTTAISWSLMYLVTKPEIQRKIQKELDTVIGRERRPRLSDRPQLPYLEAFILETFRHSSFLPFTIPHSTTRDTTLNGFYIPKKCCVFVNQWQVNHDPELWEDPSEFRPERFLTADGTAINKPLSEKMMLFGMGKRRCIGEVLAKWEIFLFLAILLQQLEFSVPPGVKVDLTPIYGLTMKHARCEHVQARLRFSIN

[2] = Cmax in ip dosed C57BL/6 mouse; type: ADME, organism-based; design: route ip; conditions: in vivo
Cytochrome P450 2D6 = Cytochrome P450 2D6 (Homo sapiens, UniProt P10635); experiment: Inhibition of CYP2D6 (unknown origin); type: ADME
Chain of Cytochrome P450 2D6 (P10635 whole entry): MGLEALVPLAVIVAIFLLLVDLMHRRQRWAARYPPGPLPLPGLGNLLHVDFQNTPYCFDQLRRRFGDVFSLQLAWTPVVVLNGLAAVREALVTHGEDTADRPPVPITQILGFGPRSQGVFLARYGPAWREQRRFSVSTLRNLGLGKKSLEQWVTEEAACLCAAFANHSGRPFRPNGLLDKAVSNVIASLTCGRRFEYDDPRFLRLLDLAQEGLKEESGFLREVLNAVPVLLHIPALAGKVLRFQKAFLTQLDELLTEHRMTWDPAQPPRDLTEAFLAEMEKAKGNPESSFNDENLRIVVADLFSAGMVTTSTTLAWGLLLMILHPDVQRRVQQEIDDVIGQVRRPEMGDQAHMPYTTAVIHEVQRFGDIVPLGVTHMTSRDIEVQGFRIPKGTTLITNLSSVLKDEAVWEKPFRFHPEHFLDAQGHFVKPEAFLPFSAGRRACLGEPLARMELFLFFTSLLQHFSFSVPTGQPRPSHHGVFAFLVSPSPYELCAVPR

[3] = Half life in ip dosed C57BL/6 mouse; type: ADME, organism-based; conditions: in vivo
[4] = biological target: T2, 5-hydroxytryptamine receptor 2B (Homo sapiens, UniProt P41595); experiment: Displacement of [3H]-LSD from human 5-HT2B receptor assessed as inhibition constant
T2 sequence (P41595 whole entry): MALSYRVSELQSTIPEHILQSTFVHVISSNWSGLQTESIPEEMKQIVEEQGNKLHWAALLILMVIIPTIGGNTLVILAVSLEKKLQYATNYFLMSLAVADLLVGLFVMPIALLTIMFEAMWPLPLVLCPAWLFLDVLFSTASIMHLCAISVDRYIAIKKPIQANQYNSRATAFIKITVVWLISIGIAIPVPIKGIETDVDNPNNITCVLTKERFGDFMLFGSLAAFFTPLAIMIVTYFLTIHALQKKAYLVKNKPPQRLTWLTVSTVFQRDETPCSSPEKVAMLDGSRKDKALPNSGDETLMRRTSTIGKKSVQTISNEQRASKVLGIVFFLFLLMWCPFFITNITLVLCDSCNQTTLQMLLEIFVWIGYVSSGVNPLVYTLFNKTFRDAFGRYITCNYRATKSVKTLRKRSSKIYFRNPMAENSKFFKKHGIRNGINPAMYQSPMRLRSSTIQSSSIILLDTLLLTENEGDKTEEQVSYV

[5] = biological target: T2, 5-hydroxytryptamine receptor 2B; experiment: Agonist activity at 5-HT2B receptor (unknown origin) assessed as stimulation of […] by calcium mobilization assay; type: functional
[6] = biological target: T2, 5-hydroxytryptamine receptor 2B; experiment: Agonist activity at 5-HT2B receptor (unknown origin) assessed as stimulation of phospho-inositide hydrolysis by IP hydrolysis assay; type: functional
[7] = biological target: T2, 5-hydroxytryptamine receptor 2B; experiment: Agonist activity at 5-HT2B receptor (unknown origin) assessed as stimulation of intracellular calcium level by calcium mobilization assay; type: functional, cell-based
[8] = Selectivity ratio, […] for 5-HT2B (unknown origin)
[9] = biological target: T2, 5-hydroxytryptamine receptor 2B; experiment: Binding affinity to 5-HT2B receptor (unknown origin)

Chain of Cytochrome P450 3A4 (P08684 whole entry): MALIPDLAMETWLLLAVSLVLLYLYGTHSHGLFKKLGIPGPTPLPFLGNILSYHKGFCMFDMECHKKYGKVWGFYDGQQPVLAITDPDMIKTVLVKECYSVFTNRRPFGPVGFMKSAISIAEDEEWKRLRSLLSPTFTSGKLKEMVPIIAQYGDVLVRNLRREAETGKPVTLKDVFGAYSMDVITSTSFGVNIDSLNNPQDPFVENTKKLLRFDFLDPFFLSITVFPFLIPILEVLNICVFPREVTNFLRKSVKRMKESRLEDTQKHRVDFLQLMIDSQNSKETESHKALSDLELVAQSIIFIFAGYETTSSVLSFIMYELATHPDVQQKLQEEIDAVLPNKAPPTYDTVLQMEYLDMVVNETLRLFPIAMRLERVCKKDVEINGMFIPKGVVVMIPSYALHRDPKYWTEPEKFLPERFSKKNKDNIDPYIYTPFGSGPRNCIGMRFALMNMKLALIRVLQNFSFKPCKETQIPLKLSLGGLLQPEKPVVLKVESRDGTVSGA
Chain of Cytochrome P450 2C9 (P11712 whole entry): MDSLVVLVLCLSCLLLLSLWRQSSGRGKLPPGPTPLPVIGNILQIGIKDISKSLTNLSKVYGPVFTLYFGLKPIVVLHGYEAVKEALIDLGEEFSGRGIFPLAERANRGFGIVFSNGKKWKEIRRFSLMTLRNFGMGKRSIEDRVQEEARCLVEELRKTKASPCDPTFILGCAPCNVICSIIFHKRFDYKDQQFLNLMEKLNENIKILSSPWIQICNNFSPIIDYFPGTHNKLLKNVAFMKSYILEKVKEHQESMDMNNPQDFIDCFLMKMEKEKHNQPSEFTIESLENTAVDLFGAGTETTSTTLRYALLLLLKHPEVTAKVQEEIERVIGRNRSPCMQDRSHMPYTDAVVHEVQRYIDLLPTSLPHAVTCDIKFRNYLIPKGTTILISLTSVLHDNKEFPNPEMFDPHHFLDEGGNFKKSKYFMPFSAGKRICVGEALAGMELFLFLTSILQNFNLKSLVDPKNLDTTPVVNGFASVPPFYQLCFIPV

## Cn1ccc2cc(-n3c(=O)[nH]c4sc5c(c4c3=O)CCCC5)ccc21
Cytochrome P450 3A4
  IC50: > 30000 nM
[1]
  Kp: 0.01
Cytochrome P450 2C9
  IC50: > 30000 nM
Cytochrome P450 1A2
  IC50: > 30000 nM
[2]
  Cmax: 43000 ng/mL
Cytochrome P450 2D6
  IC50: > 30000 nM
[3]
  half-life: 42 min

## O=C1[C@@H]2[C@@H]3C[C@@H](C[C@H]3O)[C@@H]2C(=O)N1C[C@@H]1CCCC[C@H]1CN1CCN(c2nsc3ccccc23)CC1
[4]
  Ki: 24 nM

## C[C@H](N)Cc1cccc(C(F)(F)F)c1 [NORDEXFENFLURAMINE]
[5]
  EC50: 23 nM
[6]
  EC50: 23 nM
[7]
  EC50: 23 nM

## Cc1cc(NC(=O)Nc2ccc3c(ccn3C)c2)sn1
[8]
  Selectivity ratio: > 135
[9]
  Ki: 11.2 nM

Reference: ChEMBL document CHEMBL5360673, “2B Determined: The Future of the Serotonin Receptor 2B in Drug Discovery” (J Med Chem, 2023)
